{"source": "patent US10844102B2", "about": "“Peptides, compositions, and methods for stimulating subcutaneous adipogenesis” (The Regents of the University of California, priority 2014, dated 2020)", "key": {"adipogenesis": {"system": "adipogenesis", "settings": "earlier reports, WO 2014/082042 and background; cited from earlier work"}, "dermis of aged rats": {"system": "dermis of aged rats", "assay": "Rat dermal skin model of adipogenesis (injection into the dermis of aged rats)", "type": "in vivo", "settings": "injected into the dermis of aged rats / rat skin"}}, "data": [{"substance": "KSEVSK (listed as Homo sapiens) [reference compound]", "values": [{"measurement": "adipogenic activity", "setting": "adipogenesis", "result": "strongly adipogenic"}, {"measurement": "adipogenic effects in rat skin", "setting": "dermis of aged rats", "result": "induce large fat pads"}]}]}
